Data reported in US8044103B2, “Cyclic dipeptides and azetidinone compounds and their use in treating CNS injury and neurodegenerative disorders” (Georgetown University, priority 1998, dated 2011).
Each block holds one molecule with its values, some of them ahead of it.

Assays:
[1] = tested on: traumatic spinal cord injury; settings: in vivo; cited from earlier work
[2] = tested on: rats following moderate fluid percussion injury; test: Mortality after moderate fluid percussion injury; assay type: in vivo, Male Sprague-Dawley rats; settings: 1 mg/kg i.v. 30 min following moderate fluid percussion injury; died before the end of the study; saline 21.4% and 37.5%
Procedure: Rats were anesthetized with sodium pentobarbital (70 mg/kg i.p.), intubated, and implanted with femoral venous and arterial catheters. Brain temperature was assessed indirectly through a thermister in the temporalis muscle. Body temperature was maintained through a feedback-controlled heating blanket. Blood pressure was continuously monitored, and arterial blood gases analyzed periodically. After the animal was placed in a stereotaxic frame, the scalp and temporal muscle were reflected, and a small craniotomy (5 mm) located midway between the lambda and bregma sutures over the left parietal cortex allowed insertion of a Leur-Loc that is cemented in place. The fluid-percussion head injury device, manufactured by the Medical College of Virginia, consists of a plexiglass cylindrical reservoir filled with isotonic saline; one end includes a transducer that is mounted and connected to a 5 mm tube that attaches through a male Leur-Loc fitting to the female Leur-Loc cemented at the time of surgery. A pendulum strikes a piston at the opposite end of the device, producing a pressure pulse of approximately 22 msec duration, leading to deformation of underlying brain. The degree of injury is related to the pressure pulse, expressed in atmospheres (atm): 2.6 atm in our laboratory produces a moderate injury with regard to neurological and histological deficit. Sham (control) animals undergo anesthesia and surgery without fluid percussion brain injury. […]
(§1) Continuous variables compared across groups were examined using an analysis of variance (ANOVA) followed by Bonferroni correction (rightin reflex). Continuous variables subjected to repeated measurements over a period of time (cardiovascular and core temperature measurements) were analyzed using a repeated measurements ANOVA followed by Tukey's pairwise comparison at each time point. Ordinal measurements (composite neurological scores) were evaluated using the non-parametric Kruskal-Wallis ANOVA with individual, non-parametric Mann-Whitney U-tests. […]

[3] = tested on: mice following controlled cortical impact injury (CCI); test: Beam walking task after controlled cortical impact injury (chronic neurological recovery); assay type: in vivo, Male C57Bl/6 mice; settings: 1 mg/kg following CCI injury; small group size (n=6)
Procedure: Male C57Bl/6 mice (20-25 g) were obtained from Taconic Farms (Germantown, N.Y.) and housed in an area directly adjoining surgical and behavioral rooms for at least 1 week prior to any procedures. All mice were maintained at a constant temperature (22±2° C.) and a 12 hr light/dark cycle, with lights on at 6 am and all behavioral testing performed during the light cycle. Food and water were available ad libitumn.
The injury device consisted of a microprocessor-controlled pneumatic impactor with a 3.5 mm diameter tip. The impactor is vertically mounted on a mill table (Sherline, USA) which allows for precise adjustment in the vertical plane above the mouse head, which itself is secured to a stereotaxic apparatus (David Kopf Instruments, CA) attached to the instrument. The core rod of a linear voltage differential transducer (LVDT, Serotec, USA) is attached to the lower end of the impactor to allow measurement of velocities between 3.0 and 9.0 m/s. Velocity of the impactor is controlled by fine tuning both positive and negative (back) air pressures. An oscilloscope (Tektronix, USA) records the time/displacement curve produced by the downward force on the LVDT, allowing precise measurement of the impactor velocity.
Surgical anesthesia was induced and maintained with 4% and 2% isoflurane respectively, using a flow rate of 1.0-1.5 l oxygen per minute. Depth of anesthesia was assessed by monitoring respiration rate and palpebral and pedal-withdrawal reflexes. The animal was then placed onto a heated pad and core body temperature was monitored and maintained at 38+/−0.2° C. The head was mounted in a stereotaxic frame and the surgical site clipped and prepared with a series of three Nolvasan scrubs followed by sterile saline rinses. A 10 mm mid-line incision was made over the skull, the skin and fascia reflected, and a 4 mm craniotomy made on the central aspect of the left parietal bone with a tissue punch (Roboz, USA). Great care was taken with the removal of the parietal bone to avoid injury to the underlying dura mater which was continuously bathed in sterile normal saline warmed to 37.5° C. The impounder tip of the pneumatic injury device was cleaned with a pad, soaked in absolute alcohol, positioned to the surface of the exposed dura and automatically withdrawn the 44 mm stroke distance. Following injury at a moderate (6.0 m/s velocity, 1 mm tissue deformation depth) level, the incision was closed with interrupted 6-0 silk sutures, anaesthesia was discontinued and the mouse was placed into a heated cage to maintain normothermia for 45 minutes post-injury. All animals were monitored carefully for at least 4 hours post-surgery and then daily. To minimize variation between animals due to anaesthesia during acute neurological testing, 20 minutes was allowed for surgery and 5 minutes for suturing for each animal.
Conscious mice were placed in a mouse restrainer and injected via the lateral tail vein with either normal saline (injured controls; n=6), 1 mg/kg Compound 2a (n=8), Compound 10b (n=6), Compound 11b (n=6) or Compound 14c (n=6) at 30 minutes following controlled cortical impact injury (CCI). The values for n represents the number of mice in the particular treatment group. The investigator was blinded to drug treatment both at the time of surgery and for neurological and behavioral scoring.
Chronic neurological recovery was evaluated for all animals using a beam walking task, a method which is particularly good at discriminating fine motor coordination differences between injured and sham-operated animals. The device consisted of a narrow wooden beam 6 mm wide and 120 mm in length which was suspended 300 mm above a 60 mm-thick foam rubber pad. The mouse was placed on one end of the beam and the number of footfaults for the right hindlimb recorded over 50 steps counted in either direction on the beam. A basal level of competence at this task was established before surgery with an acceptance level of <10 faults per 50 steps. […]

[4] = tested on: cats subjected to brainstem compression; settings: cited from earlier work
[5] = tested on: traumatic spinal cord injury in cats; settings: cited from earlier work
[6] = in vivo; cited from earlier work
[7] = tested on: head impact trauma in mice; settings: cited from earlier work
[8] = tested on: fully conscious and unrestrained rats; test: Mean arterial blood pressure in conscious unrestrained rats (autonomic study); assay type: in vivo; settings: 1 mg/kg i.v., over the duration of testing
Description: To assess autonomic responses to the novel TRH analogues, a separate group of rats were anesthetized with 4% isoflurane (1.5 L/min). Catheters were then placed into the right artoid artery and right jugular vein and exteriorized at the back of the neck. Rats were separated one per cage and allowed to recover from anesthesia. The exteriorized catheters were suspended above the rat to prevent biting. Mean […] blood pressure (MAP) was continuously recorded via a transducer connected directly to the arterial catheter for the duration of the study. At 1 h following catheter placement, rats were administered vehicle or drug via the catheter in the jugular vein as described below. […]
as §1

[9] = tested on: lightly anesthetized rats; test: Core body temperature in lightly anesthetized uninjured rats (analeptic study); assay type: in vivo; settings: 1 mg/kg i.v.; over 60 min following anesthesia; p<0.001 vs all other groups at 20-60 min
Procedure: (§2) Additional groups of uninjured rats were tested for autonomic and analeptic responses immediately prior to and up to 60 min. following drug administration. For the analeptic study, rats were first anesthetized with 40 mg/kg i.p. sodium pentabarbitone and placed onto an unheated pad on the laboratory bechtop at room temperature (22±2° C.). A thermister probe was placed in the rectum to measure core body temperature. After a 10 min. period, rats were administered vehicle or drug as described below via the tail vein. Time to recovery of the righting-reflex was subsequently determined while temperature was recorded at 5 min. intervals for all animals. […]
as §1

[10] = tested on: central facilitating activity; settings: cited from earlier work
rats following trauma = settings: cited from earlier work
[11] = tested on: lightly anesthetized rats; test: Latency to recover righting reflex after light anesthesia (analeptic study); assay type: in vivo; settings: i.v., doses of 1 mg/kg and 10 mg/kg (FIG. 11); after 40 mg/kg i.p. sodium pentobarbitone
Procedure: as §2, §1

Compound: NC(=O)[C@@H]1CCCN1C(=O)[C@H](Cc1cnc[nH]1)NC(=O)c1cc(=O)[nH]c(=O)[nH]1 [CG3509]
outcome following traumatic spinal cord injury [1]: improve outcome

Compound: C[C@H]1SC[C@@H](C(=O)N[C@H](Cc2c[nH]cn2)C(=O)N2CCC[C@H]2C(N)=O)NC1=O [CG3703]
outcome following traumatic spinal cord injury [1]: improve outcome

Compound: O=C1NC2(CC2)C(=O)N2CCC[C@@H]12 [Compound 1a, Cyclo [(1-Amino-1-Cyclopropane-Carboxylic Acid)-Pro]]
mortality rate [2]: 28.6%

Compound: CC(C)(C)SC[C@@H]1NC(=O)[C@@H]2CCCN2C1=O [Compound 4a, Cyclo(t-Butyl-Cys-Pro)]
mortality rate [2]: 0%

Compound: NC(=O)[C@@H]1CCCN1C(=O)C1(NC(=O)[C@@H]2CC(=O)N2)CC1 [Compound 10b, N^1-[1-[N—[(S)-4-Oxo-Azetidine-2-Carbonyl]Amino]Cyclopropane-Carbonyl]Prolinamide]
performance deficits in the beamwalking task compared with saline vehicle [3]: attenuated

Compound: NC(=O)[C@@H]1CCCN1C(=O)C1(NC(=O)[C@@H]2CC(=O)N2)CCCCC1 [Compound 11b]
performance deficits in the beamwalking task compared with saline vehicle [3]: attenuated

Compound: NC(=O)[C@H]1CSCN1C(=O)[C@H](Cc1cnc[nH]1)NC(=O)[C@@H]1CCCC(=O)N1 [MK-771]
outcome following traumatic spinal cord injury [1]: ineffective

Compound: CC1(C)CCN(C(=O)[C@H](Cc2cnc[nH]2)NC(=O)[C@@H]2CCC(=O)N2)[C@@H]1C(N)=O [RX-77368]
outcome following traumatic spinal cord injury [1]: ineffective

Compound: NC(=O)[C@@H]1CCCN1C(=O)[C@H](Cc1cnc[nH]1)NC(=O)[C@@H]1CCC(=O)N1 [TRH, L-pyroglutamyl-L-histidyl-L-prolinamide]
electrical activity and neurological recovery after brainstem compression [4]: improve electrical activity and neurological recovery
neurological deficits after traumatic spinal cord injury [5]: reduces neurological deficits
plasma half-life [6]: 4 to 5 min
postconcussional behavioral suppression following head impact trauma [7]: shorten postconcussional behavioral suppression

latency to recovery of righting reflex compared with saline [11]: significantly attenuated
Compound: NC(=O)[C@@H]1CCCN1C(=O)[C@H](Cc1cnc[nH]1)NC(=O)[C@@H]1CC(=O)N1 [YM-14673, N^α-[(S)-4-Oxo-Azetidine-2-Carbonyl]-L-Histidyl-L-Prolinamide]
mean arterial blood pressure (MAP) compared with vehicle / other groups [8]: significantly higher MAP
core temperature maintained [9]: 37-38 °C
duration of action relative to TRH (longer acting) [10]: 8-36 times
potency relative to TRH [10]: 10-100 times
chronic neurological recovery following trauma (rats following trauma): improved chronic neurological recovery
